Earlier results in US9005587B2, “Anti-bacterial and mineralizing calcium phosphate compositions” (New York University, priority 2011, dated 2015).

Test system: bacteria
Settings: in vitro; Rolla et al. 1975

For F [F−, fluoride], the “F− in solution needed to inhibit adsorption of bacteria on hydroxyapatite” value is listed as “approximately 9,500 ppm”.
